According to PubChem BioAssay AID248 (DTP/NCI, 2004):
Several values for one entry are separate records, joined by “and”; a condition that tells them apart may be missing. Identical values can stand only once. Toxic doses and inconclusive results are not listed. Rule as the data show it: active = T/C of 150% or more; inactive = T/C below 125%.

Tested on: L1210 leukemia ip in BDF1 mice, survival T/C
Assay: NCI In Vivo Anticancer Drug Screen. Data for tumor model L1210 Leukemia (intraperitoneal) in B6D2F1 (BDF1) mice
Settings: endpoint: mean survival time, higher = longer survival
Procedure, shortened: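 Antitumor effect is assessed in tumor-bearing animals. Survival in the compound arm is compared with a vehicle-dosed control arm and expressed as their quotient.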

[1] = dose: 100.0 mg/kg/injection, schedule: Q01DX009 (ip), vehicle: Klucel (hydroxypropylcellulose) (HPC)
[2] = dose: 100.0 mg/kg/injection, schedule: Q04DX003 (ip), vehicle: Klucel (hydroxypropylcellulose) (HPC)
[3] = dose: 200.0 mg/kg/injection, schedule: Q01DX009 (ip), vehicle: Klucel (hydroxypropylcellulose) (HPC)
[4] = dose: 200.0 mg/kg/injection, schedule: Q04DX003 (ip), vehicle: Klucel (hydroxypropylcellulose) (HPC)
[5] = dose: 400.0 mg/kg/injection, schedule: Q01DX009 (ip), vehicle: Klucel (hydroxypropylcellulose) (HPC)
[6] = dose: 400.0 mg/kg/injection, schedule: Q04DX003 (ip), vehicle: Klucel (hydroxypropylcellulose) (HPC)
[7] = dose: 100.0 mg/kg/injection, schedule: Q01DX009 (ip), vehicle: saline with Tween-80
[8] = dose: 200.0 mg/kg/injection, schedule: Q01DX009 (ip), vehicle: saline with Tween-80
[9] = dose: 100.0 mg/kg/injection, schedule: Q01DX001 (ip), vehicle: carboxymethylcellulose (CMC)
[10] = dose: 200.0 mg/kg/injection, schedule: Q01DX001 (ip), vehicle: carboxymethylcellulose (CMC)
[11] = dose: 400.0 mg/kg/injection, schedule: Q01DX001 (ip), vehicle: carboxymethylcellulose (CMC)
[12] = dose: 400.0 mg/kg/injection, schedule: Q01DX009 (ip), vehicle: saline with Tween-80

Measured: T/C

COc1ccc(O)c(/C=N\Nc2ccccc2)c1
inactive: [1] 89 % of control | [2] 96 % of control | [3] 91 % of control | [4] 94 % of control | [5] 86 % of control | [6] 92 % of control

Cc1c(Cl)cccc1NC(=O)/C=C/C(=O)O
inactive: [7] 98 % of control | dose: 100.0 mg/kg/injection, schedule: Q04DX003 (ip), vehicle: saline with Tween-80 95 % of control | [8] 94 % of control | dose: 200.0 mg/kg/injection, schedule: Q04DX003 (ip), vehicle: saline with Tween-80 93 % of control | dose: 400.0 mg/kg/injection, schedule: Q04DX003 (ip), vehicle: saline with Tween-80 103 % of control

Nc1ncnc2c1nc(N)n2C1OC(CO)C(O)C1O (stereo not drawn)
inactive: dose: 100.0 mg/kg/injection, schedule: Q01DX001 (ip), vehicle: saline 115 % of control and 104 % of control | dose: 200.0 mg/kg/injection, schedule: Q01DX001 (ip), vehicle: saline 123 % of control and 104 % of control | dose: 400.0 mg/kg/injection, schedule: Q01DX001 (ip), vehicle: saline 98 % of control

Cc1cccc(NC(=S)N(CCC#N)C2CCCCC2)c1
inactive: [9] 95 % of control | [10] 90 % of control | [11] 101 % of control

O=C(Nc1ccc(F)c([N+](=O)[O-])c1)Oc1cc(=O)oc2ccccc12
inactive: dose: 25.0 mg/kg/injection, schedule: Q04DX003 (ip), vehicle: Klucel (hydroxypropylcellulose) (HPC) 104 % of control | dose: 50.0 mg/kg/injection, schedule: Q04DX003 (ip), vehicle: Klucel (hydroxypropylcellulose) (HPC) 101 % of control | dose: 75.0 mg/kg/injection, schedule: Q01DX001 (ip), vehicle: Klucel (hydroxypropylcellulose) (HPC) 102 % of control | dose: 75.0 mg/kg/injection, schedule: Q01DX009 (ip), vehicle: Klucel (hydroxypropylcellulose) (HPC) 93 % of control and 103 % of control | [1] 103 % of control and 92 % of control | dose: 100.0 mg/kg/injection, schedule: Q04DX002 (ip), vehicle: Klucel (hydroxypropylcellulose) (HPC) 95 % of control and 107 % of control | [2] 98 % of control | dose: 150.0 mg/kg/injection, schedule: Q01DX001 (ip), vehicle: Klucel (hydroxypropylcellulose) (HPC) 102 % of control | dose: 150.0 mg/kg/injection, schedule: Q01DX009 (ip), vehicle: Klucel (hydroxypropylcellulose) (HPC) 87 % of control and 92 % of control | [3] 97 % of control | dose: 200.0 mg/kg/injection, schedule: Q04DX002 (ip), vehicle: Klucel (hydroxypropylcellulose) (HPC) 100 % of control and 102 % of control | dose: 300.0 mg/kg/injection, schedule: Q01DX001 (ip), vehicle: Klucel (hydroxypropylcellulose) (HPC) 107 % of control | dose: 400.0 mg/kg/injection, schedule: Q04DX002 (ip), vehicle: Klucel (hydroxypropylcellulose) (HPC) 95 % of control and 96 % of control

C[N+](C)(C)CCCC1C2CCC(C2)C1C[N+](C)(C)C (stereo not drawn)
inactive: dose: 12.0 mg/kg/injection, schedule: Q01DX009 (ip), vehicle: saline 103 % of control | dose: 12.5 mg/kg/injection, schedule: Q04DX003 (ip), vehicle: saline 106 % of control | dose: 25.0 mg/kg/injection, schedule: Q01DX009 (ip), vehicle: saline 104 % of control | dose: 25.0 mg/kg/injection, schedule: Q04DX003 (ip), vehicle: saline 98 % of control

Cc1ccc([S+](c2ccccc2)c2cc(C)ccc2C)cc1 (stereo not drawn)
inactive: dose: 2.5 mg/kg/injection, schedule: Q01DX001 (ip), vehicle: carboxymethylcellulose (CMC) 103 % of control | dose: 5.0 mg/kg/injection, schedule: Q01DX001 (ip), vehicle: carboxymethylcellulose (CMC) 102 % of control

CCNC(C)(C)C(SSS)c1ccco1 (stereo not drawn)
inactive: dose: 12.5 mg/kg/injection, schedule: Q01DX009 (ip), vehicle: gum acacia 90 % of control | dose: 25.0 mg/kg/injection, schedule: Q01DX009 (ip), vehicle: gum acacia 88 % of control | dose: 50.0 mg/kg/injection, schedule: Q01DX009 (ip), vehicle: gum acacia 90 % of control | dose: 100.0 mg/kg/injection, schedule: Q04DX003 (ip), vehicle: gum acacia 95 % of control | dose: 200.0 mg/kg/injection, schedule: Q04DX003 (ip), vehicle: gum acacia 95 % of control | dose: 400.0 mg/kg/injection, schedule: Q04DX003 (ip), vehicle: gum acacia 107 % of control

O=C(O)Cc1ccc(Cl)cc1
inactive: dose: 75.0 mg/kg/injection, schedule: Q04DX003 (ip), vehicle: saline with Tween-80 93 % of control | dose: 100.0 mg/kg/injection, schedule: Q01DX001 (ip), vehicle: saline with Tween-80 98 % of control | dose: 150.0 mg/kg/injection, schedule: Q04DX003 (ip), vehicle: saline with Tween-80 96 % of control | dose: 200.0 mg/kg/injection, schedule: Q01DX001 (ip), vehicle: saline with Tween-80 95 % of control | dose: 300.0 mg/kg/injection, schedule: Q04DX003 (ip), vehicle: saline with Tween-80 87 % of control | dose: 400.0 mg/kg/injection, schedule: Q01DX001 (ip), vehicle: saline with Tween-80 91 % of control

Cc1c2cccc(Sc3ccc(F)cc3)c2c2c3c(cccc13)[S+](c1ccc(F)cc1)C2 (stereo not drawn)
inactive: dose: 12.5 mg/kg/injection, schedule: Q01DX001 (ip), vehicle: Klucel (hydroxypropylcellulose) (HPC) 100 % of control | dose: 25.0 mg/kg/injection, schedule: Q01DX001 (ip), vehicle: Klucel (hydroxypropylcellulose) (HPC) 94 % of control | dose: 50.0 mg/kg/injection, schedule: Q01DX001 (ip), vehicle: Klucel (hydroxypropylcellulose) (HPC) 90 % of control

Cc1ccc(S(=O)(=O)Nc2ccccc2-c2nc3cc(Cl)ccc3c(=O)o2)cc1
inactive: [7] 86 % of control | [8] 87 % of control | [12] 89 % of control

OC(COC(c1ccccc1)(c1ccccc1)c1ccccc1)C(O)CC1SCCS1 (stereo not drawn)
inactive: dose: 50.0 mg/kg/injection, schedule: Q01DX001 (ip), vehicle: carboxymethylcellulose (CMC) 105 % of control | [9] 105 % of control | [10] 94 % of control | [11] 100 % of control

O=C1CC(c2ccc(Cl)cc2)C(=O)O1 (stereo not drawn)
inactive: dose: 100.0 mg/kg/injection, schedule: Q01DX001 (ip), vehicle: acetone 98 % of control | dose: 100.0 mg/kg/injection, schedule: Q04DX003 (ip), vehicle: alcohol 98 % of control | dose: 200.0 mg/kg/injection, schedule: Q01DX001 (ip), vehicle: acetone 101 % of control | dose: 200.0 mg/kg/injection, schedule: Q04DX003 (ip), vehicle: alcohol 104 % of control | dose: 400.0 mg/kg/injection, schedule: Q01DX001 (ip), vehicle: acetone 94 % of control

CSc1n[nH]c(N)n1
inactive: [7] 92 % of control | [8] 92 % of control | [12] 92 % of control

COc1c(OC)c(C(C)C)c2c(c1C(=O)O)C(=O)OC2=O
inactive: dose: 100.0 mg/kg/injection, schedule: Q01DX001 (ip), vehicle: Klucel (hydroxypropylcellulose) (HPC) 103 % of control | [2] 96 % of control | dose: 200.0 mg/kg/injection, schedule: Q01DX001 (ip), vehicle: Klucel (hydroxypropylcellulose) (HPC) 103 % of control | [4] 88 % of control | dose: 400.0 mg/kg/injection, schedule: Q01DX001 (ip), vehicle: Klucel (hydroxypropylcellulose) (HPC) 100 % of control | [6] 89 % of control

CCN(CCC#N)C(=S)Nc1cccc2ccccc12
inactive: [1] 102 % of control | [3] 101 % of control | [5] 104 % of control

O=C1CCCCC12CCCC2
inactive: dose: 100.0 mg/kg/injection, schedule: Q01DX009 (ip), vehicle: saline sonified 97 % of control | dose: 200.0 mg/kg/injection, schedule: Q01DX009 (ip), vehicle: saline sonified 103 % of control | dose: 400.0 mg/kg/injection, schedule: Q01DX009 (ip), vehicle: saline sonified 93 % of control
